In PubChem BioAssay AID1963970 (Molecular Pharmacology Branch, DTP, NCI, 2024):
Values belong to the compound of their own block, whether it stands above or below them.

Test system: 931267-113-T-J1-PDC multicell spheroid viability
Test: Anticancer human tumor 931267-113-T-J1-PDC patient-derived colon adenocarcinoma cell line growth inhibition [PI3K]
Details: for IC50: curve of first compound; for viability, T/C: stronger effect = lower value
Method in brief: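 Targeted small molecules plus PI3K inhibitors, half-log dose series from Cmax (default top 10 microM), were applied to heterotypic spheroids of cancer cells with HUVEC and MSCs. Viability indicated growth inhibition.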

[1] = second compound 0.00316 µM, first compound 0.0316 µM
[2] = second compound 0.00316 µM, first compound 0.1 µM
[3] = second compound 0.00316 µM, first compound 0.316 µM
[4] = second compound 0.00316 µM, first compound 1 µM
[5] = second compound 0.00316 µM, first compound 3.16 µM
[6] = second compound 0.00316 µM, first compound 10 µM
[7] = second compound 0.01 µM, first compound 0.0316 µM
[8] = second compound 0.01 µM, first compound 0.1 µM
[9] = second compound 0.01 µM, first compound 0.316 µM
[10] = second compound 0.01 µM, first compound 1 µM
[11] = second compound 0.01 µM, first compound 3.16 µM
[12] = second compound 0.01 µM, first compound 10 µM
[13] = second compound 0.0316 µM, first compound 0.0316 µM
[14] = second compound 0.0316 µM, first compound 0.1 µM
[15] = second compound 0.0316 µM, first compound 0.316 µM
[16] = second compound 0.0316 µM, first compound 1 µM
[17] = second compound 0.0316 µM, first compound 3.16 µM
[18] = second compound 0.0316 µM, first compound 10 µM
[19] = second compound 0.1 µM, first compound 0.0316 µM
[20] = second compound 0.1 µM, first compound 0.1 µM
[21] = second compound 0.1 µM, first compound 0.316 µM
[22] = second compound 0.1 µM, first compound 1 µM
[23] = second compound 0.1 µM, first compound 3.16 µM
[24] = second compound 0.1 µM, first compound 10 µM
[25] = second compound 0.316 µM, first compound 0.0316 µM
[26] = second compound 0.316 µM, first compound 0.1 µM
[27] = second compound 0.316 µM, first compound 0.316 µM
[28] = second compound 0.316 µM, first compound 1 µM
[29] = second compound 0.316 µM, first compound 3.16 µM
[30] = second compound 0.316 µM, first compound 10 µM
[31] = second compound 1 µM, first compound 0.0316 µM
[32] = second compound 1 µM, first compound 0.1 µM
[33] = second compound 1 µM, first compound 0.316 µM
[34] = second compound 1 µM, first compound 1 µM
[35] = second compound 1 µM, first compound 3.16 µM
[36] = second compound 1 µM, first compound 10 µM
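Note: viability read 7 days after compound addition.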

IC50 (second compound 0.00316 µM): 5.92 µM | IC50 (second compound 0.01 µM): 5.8 µM | IC50 (second compound 0.0316 µM): 4.9 µM | IC50 (second compound 0.1 µM): 3.61 µM | IC50 (second compound 0.316 µM): < 0.0316 µM | IC50 (second compound 1 µM): < 0.0316 µM
SMILES: Cn1ncc(Cl)c1-c1cc(C(=O)NC(CN)Cc2cccc(F)c2)sc1Cl (centres undefined) + COc1c(OCCCN2CCOCC2)ccc2c3n(c(=NC(=O)c4cnc(N)nc4)nc12)CCN3
viability, T/C [1]: 95.1% | viability, T/C [2]: 102% | viability, T/C [3]: 89.5% | viability, T/C [4]: 81.8% | viability, T/C [5]: 75.9% | viability, T/C [6]: 30.8% | viability, T/C [7]: 109% | viability, T/C [8]: 95.4% | viability, T/C [9]: 87.4% | viability, T/C [10]: 76% | viability, T/C [11]: 69.6% | viability, T/C [12]: 35.6% | viability, T/C [13]: 90% | viability, T/C [14]: 93.2% | viability, T/C [15]: 82.4% | viability, T/C [16]: 75.3% | viability, T/C [17]: 60.2% | viability, T/C [18]: 34% | viability, T/C [19]: 71.1% | viability, T/C [20]: 70.3% | viability, T/C [21]: 70.1% | viability, T/C [22]: 60% | viability, T/C [23]: 54.3% | viability, T/C [24]: 32.2% | viability, T/C [25]: 47.9% | viability, T/C [26]: 50.4% | viability, T/C [27]: 45.2% | viability, T/C [28]: 47.3% | viability, T/C [29]: 47.5% | viability, T/C [30]: 22.1% | viability, T/C [31]: 34.7% | viability, T/C [32]: 35.6% | viability, T/C [33]: 35.5% | viability, T/C [34]: 33.9% | viability, T/C [35]: 34.8% | viability, T/C [36]: 20%

IC50 (second compound 0.00316 µM): 6.16 µM | IC50 (second compound 0.01 µM): 6.33 µM | IC50 (second compound 0.0316 µM): 5.56 µM | IC50 (second compound 0.1 µM): 5.22 µM | IC50 (second compound 0.316 µM): 4.86 µM | IC50 (second compound 1 µM): 4.21 µM
SMILES: CC1(C)CCC(CN2CCN(c3ccc(C(=O)NS(=O)(=O)c4ccc(NCC5CCOCC5)c([N+](=O)[O-])c4)c(Oc4cnc5[nH]ccc5c4)c3)CC2)=C(c2ccc(Cl)cc2)C1 + CC(Nc1ccc2c(c1)OCCn1cc(N3C(=O)OCC3C(F)F)nc1-2)C(N)=O
viability, T/C [1]: 91.7% | viability, T/C [2]: 102% | viability, T/C [3]: 105% | viability, T/C [4]: 106% | viability, T/C [5]: 94.3% | viability, T/C [6]: 17.5% | viability, T/C [7]: 104% | viability, T/C [8]: 98.5% | viability, T/C [9]: 97.5% | viability, T/C [10]: 107% | viability, T/C [11]: 96.2% | viability, T/C [12]: 19.3% | viability, T/C [13]: 112% | viability, T/C [14]: 104% | viability, T/C [15]: 95.8% | viability, T/C [16]: 91.4% | viability, T/C [17]: 87.4% | viability, T/C [18]: 14.5% | viability, T/C [19]: 94.2% | viability, T/C [20]: 88.2% | viability, T/C [21]: 91.5% | viability, T/C [22]: 97.9% | viability, T/C [23]: 78.2% | viability, T/C [24]: 13.7% | viability, T/C [25]: 81.7% | viability, T/C [26]: 89% | viability, T/C [27]: 80.2% | viability, T/C [28]: 75.4% | viability, T/C [29]: 73% | viability, T/C [30]: 13.6% | viability, T/C [31]: 78.5% | viability, T/C [32]: 77.1% | viability, T/C [33]: 73.9% | viability, T/C [34]: 69.7% | viability, T/C [35]: 63.3% | viability, T/C [36]: 14.1%
